# Measured values from ChEMBL document CHEMBL3600281, “Synthesis and anticancer properties of new (dihydro)pyranonaphthoquinones and their epoxy analogs” (Bioorg Med Chem Lett, 2015).
# Active and inactive are the calls of the source. The calls are words filed in the database; no cut-off is given here.
# Key:
# [1] = test system: Staphylococcus aureus; assay: Antibacterial activity against Staphylococcus aureus; assay type: functional, organism-based
# [2] = test system: Pseudomonas aeruginosa; assay: Antibacterial activity against Pseudomonas aeruginosa; assay type: functional, organism-based
# [3] = test system: HepG2; assay: Cytotoxicity against human HepG2 cells; assay type: functional, cell-based
# [4] = test system: Bacillus subtilis; assay: Antibacterial activity against Bacillus subtilis; assay type: functional, organism-based
# [5] = test system: Candida albicans; assay: Antifungal activity against Candida albicans; assay type: functional, organism-based
# [6] = test system: KB; assay: Cytotoxicity against human KB cells; assay type: functional, cell-based
# [7] = test system: Escherichia coli; assay: Antibacterial activity against Escherichia coli; assay type: functional, organism-based
# [8] = test system: MCF7; assay: Cytotoxicity against human MCF7 cells; assay type: functional, cell-based
# [9] = Cytotoxicity against human Lu cells; assay type: functional, cell-based
SMILES,Activity [1],Activity [2],IC50 [3] [µM],Activity [4],Activity [5],IC50 [6] [µM],Activity [7],IC50 [8] [µM],IC50 [9] [µM]
CC1=C[C@@]23O[C@]2(CO1)C(=O)c1ccccc1C3=O,inactive,inactive,> 41.3,inactive,inactive,> 41.3,inactive,> 41.3,> 41.3
O=C1C2=C(COC(c3ccc(F)cc3)=C2)C(=O)c2ccccc21,inactive,inactive,3.6,inactive,inactive,1.5,inactive,12.9,11.5
CC1CC2=C(CO1)C(=O)c1ccccc1C2=O (centres undefined),inactive,inactive,22.5,inactive,inactive,25.3,inactive,22.1,23.2
CC1=CC2=C(CO1)C(=O)c1ccccc1C2=O,Active,inactive,6.7,inactive,inactive,5.6,inactive,29.5,13.1
CC(C)C1CC2=C(CO1)C(=O)c1ccccc1C2=O (centres undefined),inactive,inactive,19.8,inactive,inactive,17.5,inactive,26.2,> 39
O=C1C2=C(CC(c3ccccc3)OC2)C(=O)c2ccccc21 (centres undefined),inactive,inactive,18.7,inactive,inactive,16.1,inactive,27.2,> 34.4
CC(C)C1C[C@@]23O[C@]2(CO1)C(=O)c1ccccc1C3=O (some centres undefined),inactive,inactive,> 32.6,inactive,inactive,> 32.6,inactive,> 32.6,> 32.6
O=C1C2=C(COC(c3ccccc3)=C2)C(=O)c2ccccc21,inactive,inactive,12.2,inactive,inactive,7.5,inactive,> 34.7,> 34.7
CC1C[C@@]23O[C@]2(CO1)C(=O)c1ccccc1C3=O (some centres undefined),inactive,inactive,> 41,inactive,inactive,> 41,inactive,> 41,> 41
O=C1c2ccccc2C(=O)[C@]23COC(c4ccc(F)cc4)=C[C@]12O3,inactive,inactive,> 31,inactive,inactive,> 31,inactive,> 31,> 31
Cc1c2ccncc2c(C)c2c1[nH]c1ccccc12 [ELLIPTECINE],–,–,1.3,–,–,–,–,1.8,2.2
O=C1c2ccccc2C(=O)[C@]23COC(c4ccc(F)cc4)C[C@]12O3 (some centres undefined),inactive,inactive,> 30.8,inactive,inactive,> 30.8,inactive,> 30.8,> 30.8
CC(C)C1=CC2=C(CO1)C(=O)c1ccccc1C2=O,Active,inactive,10.7,inactive,inactive,4.1,inactive,6.7,14.9
O=C1C2=C(CC(c3ccc(F)cc3)OC2)C(=O)c2ccccc21 (centres undefined),inactive,inactive,23.4,inactive,inactive,20.6,inactive,> 32.4,22.1
O=C1c2ccccc2C(=O)[C@]23COC(c4ccccc4)=C[C@]12O3,inactive,inactive,> 32.9,inactive,inactive,> 32.9,inactive,> 32.9,> 32.9
